Earlier results, collected in publication PMC7094298 (Febs Letters, 2009).
“Also recorded” adds a separate entry of the source.

Key:
SARS-CoV 3CLpro = SARS-CoV 3CLpro (Severe acute respiratory syndrome coronavirus, UniProt P0C6X7)
[1] = tested on: RV and other picornaviral 3Cpro

## CCOC(=O)/C=C/[C@H](C[C@@H]1CCNC1=O)NC(=O)[C@@H](CC(=O)[C@@H](NC(=O)c1cc(C)on1)C(C)C)Cc1ccc(F)cc1 [AG7088]
SARS-CoV 3CLpro
  inhibition of SARS-CoV 3CLpro: did not inhibit; also recorded: failed to inhibit
[1]
  inhibition of RV and other picornaviral 3Cpro: potent inhibitor
